Measured values as given in ChEMBL document CHEMBL5724914, “Linking interpersonal differences in gut microbiota composition and drug biotransformation activity” (2024).

Tests used:
[1] = The drug is tested on WLS-069 corresponding to human gut metagenome with ENA study accession number: PRJEB37062 and ENA sample accession number: ERS12561748 for biotransformation under anaerobic condition. The drug concentrations were measured over 9 timepoints collected between 0 and 24 hours of incubation by liquid-chromatography-coupled mass spectrometry (LC–MS); details: 2 µM
[2] = The drug is tested on WLS-039 corresponding to human gut metagenome with ENA study accession number: PRJEB37062 and ENA sample accession number: ERS12561746 for biotransformation under anaerobic condition. The drug concentrations were measured over 9 timepoints collected between 0 and 24 hours of incubation by liquid-chromatography-coupled mass spectrometry (LC–MS); details: 2 µM
[3] = human gut metagenome, 24 h, 2 µM
[4] = human gut metagenome, 24 h, 2 µM; remark: listed apart in the source
[5] = human gut metagenome, 24 h, 2 µM; remark: listed apart in the source
[6] = human gut metagenome, 24 h, 2 µM; remark: listed apart in the source
[7] = human gut metagenome, 24 h, 2 µM; remark: listed apart in the source
[8] = human gut metagenome, 24 h, 2 µM; remark: listed apart in the source
[9] = human gut metagenome, 24 h, 2 µM; remark: listed apart in the source
Also: call rule not given here.

Compound	Bacterial Biotransformation [1]	Bacterial Biotransformation [2]	Bacterial Biotransformation [3]	Bacterial Biotransformation [4]	Bacterial Biotransformation [5]	Bacterial Biotransformation [6]	Bacterial Biotransformation [7]	Bacterial Biotransformation [8]	Bacterial Biotransformation [9]
N=C(N)NC(=O)Cc1c(Cl)cccc1Cl [GUANFACINE]	Compound NOT metabolized	Compound NOT metabolized	Compound NOT metabolized	Compound NOT metabolized	Compound NOT metabolized	Compound NOT metabolized	Compound NOT metabolized	Compound NOT metabolized	Compound NOT metabolized
CNCC[C@H](Oc1cccc2ccccc12)c1cccs1 [DULOXETINE]	Compound NOT metabolized	Compound NOT metabolized	Compound NOT metabolized	Compound NOT metabolized	Compound metabolized	Compound NOT metabolized	Compound NOT metabolized	Compound NOT metabolized	Compound metabolized
CNNCc1ccc(C(=O)NC(C)C)cc1 [PROCARBAZINE]	Compound metabolized	Compound NOT metabolized	Compound NOT metabolized	Compound NOT metabolized	Compound NOT metabolized	–	Compound NOT metabolized	Compound metabolized	Compound metabolized
N#Cc1ccc2[nH]cc(CCCCN3CCN(c4ccc5oc(C(N)=O)cc5c4)CC3)c2c1 [VILAZODONE]	–	Compound metabolized	Compound metabolized	Compound metabolized	Compound metabolized	Compound metabolized	Compound metabolized	Compound metabolized	Compound metabolized
CN(C/C=C/C#CC(C)(C)C)Cc1cccc2ccccc12 [TERBINAFINE]	–	–	Compound metabolized	Compound metabolized	Compound NOT metabolized	–	Compound NOT metabolized	Compound NOT metabolized	Compound NOT metabolized
COc1ccc(/C=C/C(=O)Nc2ccccc2C(=O)O)cc1OC	Compound metabolized	Compound metabolized	Compound NOT metabolized	Compound NOT metabolized	Compound NOT metabolized	–	Compound NOT metabolized	Compound NOT metabolized	Compound metabolized
N[C@@H](Cc1ccc(N(CCCl)CCCl)cc1)C(=O)O	–	Compound metabolized	Compound NOT metabolized	Compound NOT metabolized	Compound NOT metabolized	Compound metabolized	Compound metabolized	–	Compound metabolized
